# The source made the active and inactive calls.
# Columns and labels:
# [1] = biological target: T1, Microphthalmia-associated transcription factor (Homo sapiens, UniProt O75030); assay: reducers of TRPM1 reporter luminescence, concentration series – cell-based, SK-MEL-5, cherry-picked, set 3, MITF inhibitor project, dose response (AID 493073); format: functional;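 also: SK-MEL-5 melanoma cells with luciferase driven by the MITF target TRPM1 promoter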
# T1 sequence (O75030 whole entry): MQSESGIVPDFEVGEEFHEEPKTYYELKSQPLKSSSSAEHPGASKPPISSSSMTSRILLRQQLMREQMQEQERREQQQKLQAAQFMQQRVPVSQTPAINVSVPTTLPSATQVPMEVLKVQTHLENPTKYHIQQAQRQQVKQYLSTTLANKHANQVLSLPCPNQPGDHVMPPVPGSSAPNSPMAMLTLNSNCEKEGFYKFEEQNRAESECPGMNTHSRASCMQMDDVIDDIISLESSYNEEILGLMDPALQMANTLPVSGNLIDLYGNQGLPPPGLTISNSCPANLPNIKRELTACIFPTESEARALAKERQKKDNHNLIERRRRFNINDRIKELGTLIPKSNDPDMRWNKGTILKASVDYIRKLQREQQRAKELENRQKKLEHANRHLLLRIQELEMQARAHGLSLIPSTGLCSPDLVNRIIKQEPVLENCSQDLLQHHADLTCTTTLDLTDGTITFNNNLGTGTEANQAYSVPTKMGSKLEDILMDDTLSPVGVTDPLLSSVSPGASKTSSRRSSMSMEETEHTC
# Protein RecA = biological target: T2, Protein RecA (Mycobacterium tuberculosis, UniProt P9WHJ3); assay: Fluorescence Cell-Free Homogeneous Dose Retest to Identify Inhibitors of RecA-Intein Splicing Activity. [Related pubchem assays (depositor defined):AID2097, AID2223, AID489010, AID492950]; format: functional
# T2 sequence (P9WHJ3 whole entry): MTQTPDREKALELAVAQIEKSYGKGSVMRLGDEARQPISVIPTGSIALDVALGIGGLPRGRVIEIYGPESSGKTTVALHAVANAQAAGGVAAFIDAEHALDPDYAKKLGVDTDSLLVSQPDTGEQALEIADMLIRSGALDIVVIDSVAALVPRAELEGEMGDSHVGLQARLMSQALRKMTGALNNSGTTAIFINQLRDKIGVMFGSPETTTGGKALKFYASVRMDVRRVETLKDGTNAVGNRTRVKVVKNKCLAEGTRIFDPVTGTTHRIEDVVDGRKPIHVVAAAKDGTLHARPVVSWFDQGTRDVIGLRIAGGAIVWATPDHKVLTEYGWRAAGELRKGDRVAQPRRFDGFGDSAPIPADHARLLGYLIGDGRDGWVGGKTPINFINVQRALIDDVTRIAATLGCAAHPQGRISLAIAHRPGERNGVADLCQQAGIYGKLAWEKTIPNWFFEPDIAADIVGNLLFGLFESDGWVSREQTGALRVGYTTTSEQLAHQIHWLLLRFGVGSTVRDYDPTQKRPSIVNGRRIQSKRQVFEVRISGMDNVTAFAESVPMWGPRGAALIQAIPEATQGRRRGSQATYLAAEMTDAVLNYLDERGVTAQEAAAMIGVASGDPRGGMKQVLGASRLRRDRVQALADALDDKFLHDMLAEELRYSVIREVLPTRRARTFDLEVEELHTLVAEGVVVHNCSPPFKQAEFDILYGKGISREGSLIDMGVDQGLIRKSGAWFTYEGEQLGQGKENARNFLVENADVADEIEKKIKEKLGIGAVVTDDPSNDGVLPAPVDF
# cells = format: functional
# [2] = biological target: T3, Replicative DNA helicase DnaB (Mycobacterium tuberculosis, UniProt P9WMR3); assay: DnaB intein splicing inhibitors, dose response, biochemical, cell-free fluorescence (AID 449749); format: functional
# T3 sequence (P9WMR3 whole entry): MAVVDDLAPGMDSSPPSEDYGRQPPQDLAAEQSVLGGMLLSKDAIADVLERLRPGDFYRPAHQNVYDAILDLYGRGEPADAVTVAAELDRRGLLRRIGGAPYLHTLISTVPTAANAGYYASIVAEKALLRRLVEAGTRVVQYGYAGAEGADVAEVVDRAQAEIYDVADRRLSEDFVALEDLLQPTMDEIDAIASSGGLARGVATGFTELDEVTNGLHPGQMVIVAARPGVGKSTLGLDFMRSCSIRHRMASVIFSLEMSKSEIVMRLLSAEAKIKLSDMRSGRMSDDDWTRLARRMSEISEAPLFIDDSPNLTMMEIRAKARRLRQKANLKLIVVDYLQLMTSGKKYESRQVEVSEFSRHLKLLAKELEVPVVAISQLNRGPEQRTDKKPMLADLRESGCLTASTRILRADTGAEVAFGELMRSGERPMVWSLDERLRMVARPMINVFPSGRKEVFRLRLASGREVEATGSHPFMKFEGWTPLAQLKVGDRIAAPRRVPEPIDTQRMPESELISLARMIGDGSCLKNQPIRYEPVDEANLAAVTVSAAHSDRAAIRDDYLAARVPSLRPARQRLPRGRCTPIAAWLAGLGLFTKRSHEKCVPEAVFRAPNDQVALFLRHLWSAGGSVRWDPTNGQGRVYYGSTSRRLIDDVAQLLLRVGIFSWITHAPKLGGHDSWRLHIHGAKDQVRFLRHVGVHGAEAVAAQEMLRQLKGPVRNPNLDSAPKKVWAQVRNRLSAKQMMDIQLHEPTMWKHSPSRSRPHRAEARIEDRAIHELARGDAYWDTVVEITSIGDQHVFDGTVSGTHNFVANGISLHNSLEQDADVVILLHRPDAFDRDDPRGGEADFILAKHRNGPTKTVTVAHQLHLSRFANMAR
# [3] = THP-1 cell cytotoxicity, dose response, cytotoxicity control for non-replicating M. tuberculosis project (AID 489025); format: functional
# [4] = microbe, parasite or virus in culture; format: functional; details: Mycobacterium tuberculosis
# [5] = Vero E6 cell cytotoxicity, dose response, cytotoxicity control for non-replicating M. tuberculosis project, secondary assay (AID 492998); format: functional, VeroE6; details: Vero C1008
# [6] = biological target: T4, Heat shock factor protein 1 (Mus musculus, UniProt P38532); assay: enhancement of HSF1-driven luciferase signal – cell-based, NIH3T3, luminescence, dose retest, confirmation (AID 435004); format: functional;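 also: stress induced by proteasome inhibitor MG132 added 30 min after compound; luciferase reporter driven by HSF1 response element in NIH3T3 cells; actives raise luminescence as potentiators of the MG132 stress response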
# T4 sequence (P38532 whole entry): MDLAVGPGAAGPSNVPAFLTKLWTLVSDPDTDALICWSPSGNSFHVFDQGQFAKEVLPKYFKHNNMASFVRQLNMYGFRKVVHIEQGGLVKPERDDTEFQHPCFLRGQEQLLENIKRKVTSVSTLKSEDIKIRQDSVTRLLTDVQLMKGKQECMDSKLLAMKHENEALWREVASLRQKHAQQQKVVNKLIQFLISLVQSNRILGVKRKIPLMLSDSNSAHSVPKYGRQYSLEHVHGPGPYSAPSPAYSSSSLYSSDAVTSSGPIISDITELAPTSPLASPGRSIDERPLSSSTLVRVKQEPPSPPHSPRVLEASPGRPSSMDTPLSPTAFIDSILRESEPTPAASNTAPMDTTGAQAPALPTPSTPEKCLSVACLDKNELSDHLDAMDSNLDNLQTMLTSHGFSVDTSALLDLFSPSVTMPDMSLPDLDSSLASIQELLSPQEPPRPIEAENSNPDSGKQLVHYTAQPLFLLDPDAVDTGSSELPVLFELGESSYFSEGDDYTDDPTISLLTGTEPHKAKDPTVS
# [7] = biological target: T5, Runt-related transcription factor 1/Core-binding factor subunit beta (Homo sapiens, UniProt Q01196+Q13951); assay: disruptors of Runt domain/CBFb-SMMHC interaction – biochemical, FRET, Cerulean-Runt, Venus-CBFb-SMMHC, uHTS, […] (AID 1434); format: protein assay
# T5 sequence (Q01196 whole entry, the tested form may be a part): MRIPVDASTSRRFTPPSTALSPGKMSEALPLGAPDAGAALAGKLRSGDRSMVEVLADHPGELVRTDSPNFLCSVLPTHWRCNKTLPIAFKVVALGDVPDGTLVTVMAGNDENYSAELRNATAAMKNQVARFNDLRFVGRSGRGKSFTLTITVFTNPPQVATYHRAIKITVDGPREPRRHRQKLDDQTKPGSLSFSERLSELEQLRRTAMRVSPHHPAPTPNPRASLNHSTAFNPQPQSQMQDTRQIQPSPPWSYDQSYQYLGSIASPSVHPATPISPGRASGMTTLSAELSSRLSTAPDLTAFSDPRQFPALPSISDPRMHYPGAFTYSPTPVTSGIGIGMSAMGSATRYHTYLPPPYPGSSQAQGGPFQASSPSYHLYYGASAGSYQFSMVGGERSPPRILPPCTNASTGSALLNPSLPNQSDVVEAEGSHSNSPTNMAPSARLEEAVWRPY
# T5 sequence (Q13951 whole entry, the tested form may be a part): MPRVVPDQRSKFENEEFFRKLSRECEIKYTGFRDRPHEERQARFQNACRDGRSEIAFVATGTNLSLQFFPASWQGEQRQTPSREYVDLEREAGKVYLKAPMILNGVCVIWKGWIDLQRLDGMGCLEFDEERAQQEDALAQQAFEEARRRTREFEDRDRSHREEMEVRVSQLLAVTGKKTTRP
# [8] = biological target: T5, Runt-related transcription factor 1/Core-binding factor subunit beta; assay: Runt domain/CBFb-SMMHC interaction disruptors – biochemical, TR-FRET (AID 1438); format: protein assay
# [9] = biological target: T6, G-protein coupled receptor 35 (Homo sapiens, UniProt Q9HC97); assay: SAR analysis of Antagonists of the GPR35 Receptor using an Image-Based Assay - Set 6. [Related pubchem assays (depositor defined):AID2013, AID2026]; format: functional
# T6 sequence (Q9HC97 whole entry): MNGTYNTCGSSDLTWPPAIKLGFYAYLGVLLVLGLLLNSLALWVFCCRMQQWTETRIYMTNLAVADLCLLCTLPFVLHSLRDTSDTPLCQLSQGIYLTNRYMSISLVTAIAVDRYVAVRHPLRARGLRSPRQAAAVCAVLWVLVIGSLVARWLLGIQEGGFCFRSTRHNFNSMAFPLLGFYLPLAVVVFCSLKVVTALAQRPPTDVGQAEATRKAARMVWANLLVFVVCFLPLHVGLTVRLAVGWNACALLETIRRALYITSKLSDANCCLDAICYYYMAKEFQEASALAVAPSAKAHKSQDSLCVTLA
# Cannabinoid receptor 2 [10] = biological target: T7, Cannabinoid receptor 2 (Homo sapiens, UniProt P34972); assay: SAR analysis of antagonists of the Cannabinoid Receptor 2 using an Image-Based Assay - Set 3. [Related pubchem assays (depositor defined):AID2013, AID2026]; format: functional
# T7 sequence (P34972 whole entry): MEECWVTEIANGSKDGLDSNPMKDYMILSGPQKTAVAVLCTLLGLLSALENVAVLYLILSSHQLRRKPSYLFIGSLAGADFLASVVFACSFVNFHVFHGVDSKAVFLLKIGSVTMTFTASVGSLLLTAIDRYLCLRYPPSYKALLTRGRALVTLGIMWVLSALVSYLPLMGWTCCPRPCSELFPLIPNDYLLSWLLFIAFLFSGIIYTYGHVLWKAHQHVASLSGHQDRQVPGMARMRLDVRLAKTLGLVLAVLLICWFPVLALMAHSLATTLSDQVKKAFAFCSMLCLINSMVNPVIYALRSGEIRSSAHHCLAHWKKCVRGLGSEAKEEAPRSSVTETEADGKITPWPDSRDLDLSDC
# [11] = biological target: T6, G-protein coupled receptor 35; assay: SAR analysis of Agonists of the GPR35 Receptor using an Image-Based Assay - Set 4. [Related pubchem assays (depositor defined):AID2013, AID2026]; format: functional
# Cannabinoid receptor 1 [12] = biological target: T8, Cannabinoid receptor 1 (Homo sapiens, UniProt P21554); assay: SAR analysis of agonists of the Cannabinoid Receptor 1 using an Image-Based Assay - Set 4. [Related pubchem assays (depositor defined):AID2013, AID2026]; format: functional
# T8 sequence (P21554 whole entry): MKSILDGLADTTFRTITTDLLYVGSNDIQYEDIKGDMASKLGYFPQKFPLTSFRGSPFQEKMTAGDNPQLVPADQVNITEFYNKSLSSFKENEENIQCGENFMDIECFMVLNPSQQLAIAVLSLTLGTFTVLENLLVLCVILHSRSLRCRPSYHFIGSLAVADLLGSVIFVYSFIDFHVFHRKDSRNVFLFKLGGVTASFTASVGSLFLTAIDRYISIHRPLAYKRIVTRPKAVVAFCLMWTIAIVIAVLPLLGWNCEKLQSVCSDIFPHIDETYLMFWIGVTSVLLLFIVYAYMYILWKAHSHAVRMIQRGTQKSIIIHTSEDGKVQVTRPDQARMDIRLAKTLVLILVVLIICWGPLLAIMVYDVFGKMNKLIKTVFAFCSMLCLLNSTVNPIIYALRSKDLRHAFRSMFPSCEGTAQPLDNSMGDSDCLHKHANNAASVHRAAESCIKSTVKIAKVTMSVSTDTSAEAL
# [13] = biological target: T9, High affinity choline transporter 1 (Homo sapiens, UniProt Q9GZV3); assay: human choline transporter blockers, potency – cell-based, 5-point CRC, membrane potential dye, dose response (AID 504840); format: functional
# T9 sequence (Q9GZV3 whole entry): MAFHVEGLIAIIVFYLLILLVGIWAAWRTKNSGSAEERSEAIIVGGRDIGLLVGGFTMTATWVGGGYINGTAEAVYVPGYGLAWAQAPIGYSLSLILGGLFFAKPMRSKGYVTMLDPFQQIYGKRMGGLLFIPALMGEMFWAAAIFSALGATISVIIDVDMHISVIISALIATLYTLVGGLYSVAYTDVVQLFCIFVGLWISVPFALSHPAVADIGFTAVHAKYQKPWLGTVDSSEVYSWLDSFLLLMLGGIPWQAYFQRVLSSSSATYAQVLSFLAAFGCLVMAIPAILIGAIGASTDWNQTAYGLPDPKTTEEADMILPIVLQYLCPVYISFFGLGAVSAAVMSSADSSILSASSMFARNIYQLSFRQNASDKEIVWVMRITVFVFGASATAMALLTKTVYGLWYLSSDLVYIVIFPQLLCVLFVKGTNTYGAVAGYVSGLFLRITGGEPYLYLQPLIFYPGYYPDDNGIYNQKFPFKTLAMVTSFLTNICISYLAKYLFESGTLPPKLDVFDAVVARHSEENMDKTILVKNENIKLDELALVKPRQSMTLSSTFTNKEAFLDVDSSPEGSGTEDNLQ
# [14] = biological target: G-protein coupled receptor 55 (Homo sapiens, UniProt Q9Y2T6); assay: SAR Analysis of Selective Antagonists of GPR55 using an Image-Based Assay - Set 4. [Related pubchem assays (depositor defined):AID2013, AID2026]; format: functional;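 also: antagonism of response to 5 µM lysophosphatidylinositol agonist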
# Sequence of G-protein coupled receptor 55 (Q9Y2T6 whole entry): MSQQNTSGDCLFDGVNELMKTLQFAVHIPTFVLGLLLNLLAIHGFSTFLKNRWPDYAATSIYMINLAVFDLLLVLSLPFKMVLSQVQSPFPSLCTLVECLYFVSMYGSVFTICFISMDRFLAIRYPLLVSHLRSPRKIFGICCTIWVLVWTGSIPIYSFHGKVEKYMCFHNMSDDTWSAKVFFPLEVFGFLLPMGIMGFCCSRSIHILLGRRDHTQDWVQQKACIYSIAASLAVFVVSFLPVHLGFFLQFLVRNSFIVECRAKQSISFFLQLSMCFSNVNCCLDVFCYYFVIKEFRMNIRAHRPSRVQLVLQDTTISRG
# Cannabinoid receptor 2 [15] = biological target: T7, Cannabinoid receptor 2; assay: SAR analysis of agonists of the Cannabinoid Receptor 2 using an Image-Based Assay - Set 3. [Related pubchem assays (depositor defined):AID2013, AID2026]; format: functional
# [16] = biological target: COUP transcription factor 2 (Homo sapiens, UniProt P24468); assay: Luminescence-based cell-based high throughput dose response assay to identify inhibitors of COUP-TFII (NR2F2).; format: functional;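 also: HEK293 cells transiently cotransfected with COUP-TFII expression vector and reporter; luciferase reporter luminescence driven by COUP-TFII from the pX2-168 reporter plasmid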
# Sequence of COUP transcription factor 2 (P24468 whole entry): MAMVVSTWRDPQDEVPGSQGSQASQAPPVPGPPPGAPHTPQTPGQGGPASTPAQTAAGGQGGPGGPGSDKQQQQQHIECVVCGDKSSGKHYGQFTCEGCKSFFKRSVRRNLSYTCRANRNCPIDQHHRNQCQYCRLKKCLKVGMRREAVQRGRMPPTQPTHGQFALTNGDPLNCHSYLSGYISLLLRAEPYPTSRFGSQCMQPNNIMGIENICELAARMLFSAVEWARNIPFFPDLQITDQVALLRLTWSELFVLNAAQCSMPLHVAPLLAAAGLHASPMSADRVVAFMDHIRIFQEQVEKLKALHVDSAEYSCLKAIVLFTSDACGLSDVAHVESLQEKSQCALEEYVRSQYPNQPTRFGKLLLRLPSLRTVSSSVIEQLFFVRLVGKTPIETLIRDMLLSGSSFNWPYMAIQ
# Cannabinoid receptor 1 [17] = biological target: T8, Cannabinoid receptor 1; assay: SAR analysis of antagonists of the Cannabinoid Receptor 1 using an Image-Based Assay - Set 4. [Related pubchem assays (depositor defined):AID2013, AID2026]; format: functional
# Hexokinase-1 = Hexokinase-1 (Homo sapiens, UniProt P19367); assay: HK1 enzyme activation by HKDC1 hits – biochemical, selectivity assay for HKDC1 activator project, dose response (AID 504762); format: functional
# Sequence of Hexokinase-1 (P19367 whole entry): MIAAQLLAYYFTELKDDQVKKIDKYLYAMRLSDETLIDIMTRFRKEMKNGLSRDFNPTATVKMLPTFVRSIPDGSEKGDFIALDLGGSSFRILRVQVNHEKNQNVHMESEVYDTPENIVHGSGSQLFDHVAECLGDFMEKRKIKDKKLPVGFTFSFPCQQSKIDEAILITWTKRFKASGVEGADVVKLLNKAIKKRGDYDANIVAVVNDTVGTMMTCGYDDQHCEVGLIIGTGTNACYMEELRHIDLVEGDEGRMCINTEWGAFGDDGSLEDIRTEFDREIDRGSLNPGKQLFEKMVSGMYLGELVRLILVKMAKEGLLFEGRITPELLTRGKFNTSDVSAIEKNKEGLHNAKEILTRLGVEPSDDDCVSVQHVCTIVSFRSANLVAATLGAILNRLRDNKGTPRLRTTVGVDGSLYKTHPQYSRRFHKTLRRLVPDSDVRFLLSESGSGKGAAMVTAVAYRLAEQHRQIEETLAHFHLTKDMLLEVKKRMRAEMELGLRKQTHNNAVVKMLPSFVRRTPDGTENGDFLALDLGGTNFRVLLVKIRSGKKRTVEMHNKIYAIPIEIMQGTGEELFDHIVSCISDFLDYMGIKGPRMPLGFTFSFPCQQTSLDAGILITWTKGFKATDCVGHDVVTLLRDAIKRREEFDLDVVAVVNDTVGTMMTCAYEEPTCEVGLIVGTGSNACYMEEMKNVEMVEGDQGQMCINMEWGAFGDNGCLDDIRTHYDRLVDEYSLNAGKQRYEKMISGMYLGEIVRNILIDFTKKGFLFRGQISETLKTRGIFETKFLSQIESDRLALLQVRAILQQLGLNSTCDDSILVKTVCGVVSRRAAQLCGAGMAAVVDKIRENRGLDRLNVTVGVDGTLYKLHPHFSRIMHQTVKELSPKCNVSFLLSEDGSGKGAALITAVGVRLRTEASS
# Hexokinase HKDC1 = biological target: T10, Hexokinase HKDC1 (Homo sapiens, UniProt Q2TB90); assay: activation of HKDC1 glucose phosphorylation – biochemical, W721R variant, dose response (AID 504730); format: functional
# T10 sequence (Q2TB90 whole entry): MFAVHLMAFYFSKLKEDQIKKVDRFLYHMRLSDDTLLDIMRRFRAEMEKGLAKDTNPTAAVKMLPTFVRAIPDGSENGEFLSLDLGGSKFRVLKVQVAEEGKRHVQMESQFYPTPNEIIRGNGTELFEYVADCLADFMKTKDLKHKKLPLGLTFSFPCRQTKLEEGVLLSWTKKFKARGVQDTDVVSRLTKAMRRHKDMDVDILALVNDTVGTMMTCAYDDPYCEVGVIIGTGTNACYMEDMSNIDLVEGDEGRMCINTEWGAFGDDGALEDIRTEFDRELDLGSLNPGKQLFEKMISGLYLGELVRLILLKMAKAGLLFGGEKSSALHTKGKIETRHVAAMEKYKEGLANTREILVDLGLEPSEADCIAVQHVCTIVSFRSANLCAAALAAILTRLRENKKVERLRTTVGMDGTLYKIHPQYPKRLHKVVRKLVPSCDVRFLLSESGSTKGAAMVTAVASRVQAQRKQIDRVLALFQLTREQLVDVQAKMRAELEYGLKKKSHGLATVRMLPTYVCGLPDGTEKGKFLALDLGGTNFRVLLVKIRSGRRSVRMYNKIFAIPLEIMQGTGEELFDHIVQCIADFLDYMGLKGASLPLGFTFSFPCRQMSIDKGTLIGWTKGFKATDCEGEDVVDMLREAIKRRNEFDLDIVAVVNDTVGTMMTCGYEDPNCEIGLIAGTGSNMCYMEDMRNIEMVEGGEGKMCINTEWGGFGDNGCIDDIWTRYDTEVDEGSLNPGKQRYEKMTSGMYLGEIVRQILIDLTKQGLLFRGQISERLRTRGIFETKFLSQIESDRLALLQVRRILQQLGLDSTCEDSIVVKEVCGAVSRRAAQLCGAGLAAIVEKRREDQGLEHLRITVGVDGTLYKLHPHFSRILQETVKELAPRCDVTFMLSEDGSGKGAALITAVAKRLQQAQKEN
structure (smiles),measurement,setting,value
COC(=O)c1ccc2c(c1O)C(=O)c1ccccc1C2=O,AC50,[1],1.61 µM (active)
same,EC50,Protein RecA,0.925 µM (active)
same,IC50,cells,4.52 µM (active)
same,AC50,[2],51.4 µM (active)
same,CC50,[3],> 40 µM (active)
same,CC50,[4],24.2 µM (active)
same,CC50,[5],> 20 µM (active)
same,EC50,[6],3.73 µM (active)
CCOC(=O)N1CCC(NC(=O)c2ccc3c(c2)N(C)CCS3)CC1,IC50,[7],> 100 µM (inactive)
same,IC50,[8],> 100 µM (inactive)
Oc1ccc(-c2n[nH]c(C(F)(F)F)c2-c2ccccc2)c(O)c1,IC50,[9],> 32 µM (inactive)
same,IC50,Cannabinoid receptor 2 [10],> 32 µM (inactive)
same,EC50,[11],> 32 µM (inactive)
same,EC50,Cannabinoid receptor 1 [12],> 32 µM (inactive)
same,IC50,[13],11 µM (active)
same,IC50,[14],2.95 µM (active)
same,EC50,Cannabinoid receptor 2 [15],27.4 µM (inactive)
same,IC50,[16],10.9 µM (inactive)
same,IC50,Cannabinoid receptor 1 [17],3.49 µM (active)
COc1ccccc1C1=NN=C(Nc2cccc(S(=O)(=O)N(C)C)c2)SC1,EC50,Hexokinase-1,20.1 µM (inactive)
same,EC50,Hexokinase HKDC1,19.5 µM (active)

# — ChEMBL document CHEMBL1201862, “PubChem BioAssay data set” (2004)
